Measurements taken from patent publication US9163015B2, “Pyrazolopyridine, pyrarolopyrazine, pyrazolopyrimidine, pyrazolothiophene and pyrazolothiazole compounds as MGLUR4 allosteric potentiators, compositions, and methods of treating neurological dysfunction” (Vanderbilt University, priority 2010, dated 2015).
pEC50: −log10 of the molar value.

Molecular target: human mGluR4 (Homo sapiens (Human), UniProt Q14833)
Test: mGluR4 potentiation assay, CHO cells transfected with human mGluR4, Ca2+-sensitive fluorescent dye, EC20 agonist
Format: cell-based
Conditions: potentiation of mGluR4; table does not state human or rat receptor
Method: The disclosed compounds and compositions can be evaluated for their ability to act as a potentiator of metabotropic glutamate receptor activity, in particular mGluR4 activity, by any suitable known methodology known in the art. For example, Chinese Hamster Ovary (CHO) cells transfected with human mGluR4 or HEK cells co-transfected with rat mGluR4 and the G-protein regulated Inwardly Rectifying Potassium channel (GIRK) were plated in clear bottom assay plates for assay in a Hamamatsu FDSS Fluorometric Plate Reader. The cells were loaded with either a Ca2+-sensitive fluorescent dye or the thallium responsive dye and the plates were washed and placed into a suitable kinetic plate reader. For human mGluR4 assays, a fluorescence baseline was established for 3-5 seconds, the disclosed compounds were then added to the cells, and the response in cells was measured. Approximately two and a half minutes later, a concentration of mGluR4 orthosteric agonist (e.g. glutamate or L-AP4) eliciting approximately 20% (EC20) of the maximal agonist response was added to the cells, and the response was measured. Two minutes later, a concentration of mGluR4 agonist (e.g. glutamate or L-AP4) eliciting 80% (EC80) of the maximal agonist response was added to the cells, and the response was measured. For rat mGluR4/GIRK experiments, a baseline was established for approximately five seconds, disclosed compounds were added, and either an EC20 or EC80 concentration of agonist was added approximately two and one half minutes later.
The above described assay operated in two modes. In the first mode, a range of concentrations of the disclosed compounds are added to cells, followed by a single fixed concentration of agonist. If the compound acts as a potentiatior, an EC50 value for potentiation and a maximum extent of potentiation by the compound at this concentration of agonist is determined by non-linear curve fitting. If the compound acts as a noncompetitive antagonist, an IC50 value is determined by non-linear curve fitting. In the second mode, several fixed concentrations of the disclosed compounds are added to various wells on a plate, followed by a range in concentrations of agonist for each concentration of disclosed compound. The EC50 values for the agonist at each concentration of compound are determined by non-linear curve fitting. A decrease in the EC50 value of the agonist with increasing concentrations of the sample compound (a leftward shift of the agonist concentration-response curve) is an indication of the degree of mGluR4 potentiation at a given concentration of the sample compound. A decrease in the maximal response of the agonist with increasing concentrations of the sample compounds, with or without a rightward shift in agonist potency, is an indication of the degree of noncompetitive antagonism at mGluR4. The second mode also indicates whether the sample compounds also affect the maximum response to mGluR4 to agonists.

Sequence of human mGluR4 (Q14833 33-912): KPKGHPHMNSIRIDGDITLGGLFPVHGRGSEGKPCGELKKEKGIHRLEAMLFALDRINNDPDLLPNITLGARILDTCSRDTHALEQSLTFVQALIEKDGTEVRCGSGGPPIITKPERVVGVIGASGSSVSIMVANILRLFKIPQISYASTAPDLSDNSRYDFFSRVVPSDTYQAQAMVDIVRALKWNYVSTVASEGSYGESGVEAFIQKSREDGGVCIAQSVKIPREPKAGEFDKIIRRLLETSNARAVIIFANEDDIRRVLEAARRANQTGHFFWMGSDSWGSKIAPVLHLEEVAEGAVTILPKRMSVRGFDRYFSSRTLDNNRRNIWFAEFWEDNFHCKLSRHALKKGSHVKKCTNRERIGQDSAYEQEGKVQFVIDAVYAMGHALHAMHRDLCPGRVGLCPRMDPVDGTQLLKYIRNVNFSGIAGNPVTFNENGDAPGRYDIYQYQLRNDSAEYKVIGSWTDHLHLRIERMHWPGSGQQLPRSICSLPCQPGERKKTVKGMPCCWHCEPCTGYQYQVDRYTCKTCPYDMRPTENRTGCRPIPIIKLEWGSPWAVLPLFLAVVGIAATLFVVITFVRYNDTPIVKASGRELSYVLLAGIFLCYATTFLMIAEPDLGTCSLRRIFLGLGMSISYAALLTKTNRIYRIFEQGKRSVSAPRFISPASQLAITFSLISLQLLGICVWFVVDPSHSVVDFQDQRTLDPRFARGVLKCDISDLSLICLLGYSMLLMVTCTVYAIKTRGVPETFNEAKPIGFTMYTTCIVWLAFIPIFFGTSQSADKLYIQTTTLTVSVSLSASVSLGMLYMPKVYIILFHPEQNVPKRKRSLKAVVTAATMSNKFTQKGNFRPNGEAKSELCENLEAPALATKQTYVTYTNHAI

Row | pEC50 | SMILES
1 | 6.51 | Fc1ccc2[nH]nc(Nc3ccc(F)c(Cl)c3)c2n1 [Example 95, N-(3-chloro-4-fluorophenyl)-5-fluoro-1H-pyrazolo[4,3-b]pyridin-3-amine]
2 | 5.47 | Clc1cc(Nc2n[nH]c3cccnc23)cnc1Oc1ccccn1 [Example 96, N-(5-chloro-6-(pyridin-2-yloxy)pyridin-3-yl)-1H-pyrazolo[4,3-b]pyridin-3-amine]
